According to ChEMBL document CHEMBL1201862, “PubChem BioAssay data set” (2004):
Active and inactive are the calls of the source.

Assays:
Cytochrome P450 2D6 = Cytochrome P450 2D6 (Homo sapiens, UniProt P10635);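 further: CYP2D6 member of a cytochrome P450 panel assay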
[1] = target: FAD-linked sulfhydryl oxidase ALR (Homo sapiens, UniProt P55789); assay: ALR-catalysed DTT oxidation blockers – biochemical, H2O2 detection, luminescence, cherry-pick, dose response (AID 493248)
cells = assay type: functional
Cytochrome P450 2C19 = Cytochrome P450 2C19 (Homo sapiens, UniProt P33261); assay: Cytochrome panel assay with activity outcomes. Panel member name: p450-cyp2c19 Compounds with AC50 equal or less than 10 uM are considered active; assay type: functional; conditions: read-out: AC50
Sequence of Cytochrome P450 2C19 (P33261 whole entry): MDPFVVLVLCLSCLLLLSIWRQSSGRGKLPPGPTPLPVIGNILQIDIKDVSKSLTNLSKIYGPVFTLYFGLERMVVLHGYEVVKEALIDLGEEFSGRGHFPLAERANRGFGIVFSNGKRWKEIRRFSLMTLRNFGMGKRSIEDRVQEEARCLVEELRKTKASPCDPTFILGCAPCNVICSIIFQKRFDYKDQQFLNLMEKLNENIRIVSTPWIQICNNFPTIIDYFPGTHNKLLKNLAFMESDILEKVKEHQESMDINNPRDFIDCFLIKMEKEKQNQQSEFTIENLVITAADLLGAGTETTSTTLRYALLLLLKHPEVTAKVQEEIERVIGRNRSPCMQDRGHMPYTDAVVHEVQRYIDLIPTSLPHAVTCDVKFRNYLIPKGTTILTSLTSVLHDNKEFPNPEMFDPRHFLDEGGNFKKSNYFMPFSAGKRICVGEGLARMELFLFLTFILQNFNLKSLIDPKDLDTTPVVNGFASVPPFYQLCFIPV

[2] = Luminescence Cell-Based Dose Retest to Confirm Inhibitors of Cancer Stem Cells. [Related pubchem assays (depositor defined):AID2717, AID2721]; assay type: functional; conditions: Homo sapiens
[3] = luciferase reporter signal suppression in cells – H4 neuroglioma cells, luminescence, dose response (AID 1990); assay type: functional, cell-based
[4] = Luminescence Cell-Based Dose Response HTS to Identify Inhibitors of 5'UTR Stem-Loop Driven Prion Protein mRNA Translation in H4 Neuroglioblastoma Cells. [Related pubchem assays: 1827 (Project Summary), 1813 (Primary HTS)]; assay type: functional
[5] = alpha-synuclein stem-loop luciferase translation blockers – H4 neuroglioma cells, luminescence, confirmation (AID 1988); assay type: functional, cell-based
Streptococcus = assay: GAS UMAA2166 growth inhibition – luminescence, BacTiterGlo, counter-screen for streptokinase expression inhibitor project, dose response (AID 1915); assay type: functional, organism-based;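 further: potency for reduction of bacterial viability or growth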
[6] = system: Streptococcus sp. 'group A'; assay: Streptococcus pyogenes SK(-)GAS viability under kanamycin – luminescence, BacTiterGlo, confirmation, counter-screen for streptokinase expression inhibitor project, dose response (AID 1900); assay type: functional, organism-based
Streptokinase A = target: T1, Streptokinase A (Streptococcus pyogenes serotype M1, UniProt P10520); assay: viability-normalized secreted streptokinase activity reduction – plasminogen activation absorbance, OD405, dose response (AID 1914); assay type: functional, Streptococcus pyogenes M1 GAS;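 further: secreted streptokinase activity via plasminogen activation per viability signal from cell pellet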
T1 sequence (P10520 whole entry): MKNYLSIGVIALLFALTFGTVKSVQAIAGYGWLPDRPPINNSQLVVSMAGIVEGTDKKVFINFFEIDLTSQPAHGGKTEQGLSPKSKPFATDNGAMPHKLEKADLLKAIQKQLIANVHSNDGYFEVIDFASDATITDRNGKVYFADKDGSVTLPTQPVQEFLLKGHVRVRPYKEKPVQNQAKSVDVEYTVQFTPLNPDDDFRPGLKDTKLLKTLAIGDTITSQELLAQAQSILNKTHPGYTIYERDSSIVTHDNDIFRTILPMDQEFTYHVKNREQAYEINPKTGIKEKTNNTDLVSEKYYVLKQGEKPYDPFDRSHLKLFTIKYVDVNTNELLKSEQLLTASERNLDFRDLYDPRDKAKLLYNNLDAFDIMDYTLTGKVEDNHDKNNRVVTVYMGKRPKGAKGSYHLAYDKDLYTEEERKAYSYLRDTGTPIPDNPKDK

[7] = target: T2, Heat shock factor protein 1 (Mus musculus, UniProt P38532); assay: enhancement of HSF1-driven luciferase signal – cell-based, NIH3T3, luminescence, dose retest, confirmation (AID 435004); assay type: functional;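 further: stress induced by proteasome inhibitor MG132 added 30 min after compound; luciferase reporter driven by HSF1 response element in NIH3T3 cells; actives raise luminescence as potentiators of the MG132 stress response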
T2 sequence (P38532 whole entry): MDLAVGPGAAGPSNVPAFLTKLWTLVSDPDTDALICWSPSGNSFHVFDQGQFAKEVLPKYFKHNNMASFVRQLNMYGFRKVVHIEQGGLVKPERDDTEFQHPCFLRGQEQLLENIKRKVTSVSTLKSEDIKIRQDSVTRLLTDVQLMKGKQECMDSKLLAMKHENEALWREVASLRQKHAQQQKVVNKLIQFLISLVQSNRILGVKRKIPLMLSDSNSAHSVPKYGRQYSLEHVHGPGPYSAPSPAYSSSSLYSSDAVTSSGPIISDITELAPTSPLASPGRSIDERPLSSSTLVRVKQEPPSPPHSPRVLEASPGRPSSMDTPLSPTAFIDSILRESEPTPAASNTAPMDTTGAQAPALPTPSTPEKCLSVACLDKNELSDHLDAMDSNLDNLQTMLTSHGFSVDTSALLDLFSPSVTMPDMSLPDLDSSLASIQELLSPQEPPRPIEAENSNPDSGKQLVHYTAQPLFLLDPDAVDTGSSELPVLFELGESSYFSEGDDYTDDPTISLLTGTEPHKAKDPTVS

[8] = Trypanosoma cruzi growth suppression in host cells – NIH3T3 host cells, beta-gal luminescence, confirmation (AID 2044); assay type: functional, cell-based;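 further: intracellular parasites grown in NIH/3T3 mouse fibroblasts as host cells; luminescent beta-galactosidase reporter signal from transgenic T. cruzi replicating inside host cells; inhibitors lower the luminescence signal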
[9] = NIH3T3 cell viability loss – ATP luminescence, mouse fibroblasts, counter-screen, dose response (AID 2010); assay type: functional, cell-based;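 further: cells exposed to compound for about 90 hours before reading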

Sequence of Cytochrome P450 2D6 (P10635 whole entry): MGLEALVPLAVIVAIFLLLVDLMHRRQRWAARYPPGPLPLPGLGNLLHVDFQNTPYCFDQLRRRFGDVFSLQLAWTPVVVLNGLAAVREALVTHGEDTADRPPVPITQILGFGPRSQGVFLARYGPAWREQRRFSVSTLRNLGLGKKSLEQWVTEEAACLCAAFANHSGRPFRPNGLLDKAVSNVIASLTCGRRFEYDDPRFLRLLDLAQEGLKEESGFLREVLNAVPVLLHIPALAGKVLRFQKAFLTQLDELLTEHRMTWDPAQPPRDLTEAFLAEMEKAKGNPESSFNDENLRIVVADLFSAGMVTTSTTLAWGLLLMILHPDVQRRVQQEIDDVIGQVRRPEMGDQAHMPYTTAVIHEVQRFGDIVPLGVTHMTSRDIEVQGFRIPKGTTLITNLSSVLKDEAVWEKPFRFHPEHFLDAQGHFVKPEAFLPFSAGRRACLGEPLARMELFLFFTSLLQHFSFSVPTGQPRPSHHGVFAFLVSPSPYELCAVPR
Sequence of FAD-linked sulfhydryl oxidase ALR (P55789 whole entry): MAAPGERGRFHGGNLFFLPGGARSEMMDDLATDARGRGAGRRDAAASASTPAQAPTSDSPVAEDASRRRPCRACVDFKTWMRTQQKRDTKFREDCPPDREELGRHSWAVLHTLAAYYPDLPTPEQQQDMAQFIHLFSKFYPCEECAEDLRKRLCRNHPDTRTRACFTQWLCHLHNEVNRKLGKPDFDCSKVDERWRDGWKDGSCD

O=C(Nc1cccc(NC(=O)c2ccccc2[N+](=O)[O-])n1)c1ccccc1[N+](=O)[O-]
AC50 (Cytochrome P450 2D6): 20 µM (inconclusive)

Nc1n[nH]c(N2CCN(c3cccc(Cl)c3)CC2)n1
AC50 [1]: 1.25 µM (active)

CCOC(=O)COc1ccc2c3c(c(=O)oc2c1C)CCC3
IC50 (cells): > 50 µM (active)

O=C(c1csnn1)N1CCC2(CC1)CN(c1ccccc1)C2
AC50 (Cytochrome P450 2C19): 39.8 µM (inconclusive)
AC50 (Cytochrome P450 2D6): 15.8 µM (inconclusive)

CCOCCOC(=O)COc1ccc2c(-c3ccccc3)cc(=O)oc2c1
IC50 (cells): 1.77 µM (active)

Fc1cccc(-n2c(-c3cccs3)nc3nc4ccccc4nc32)c1
AC50 [2]: 1.69 µM (active)

CCOC(=O)CCNC(=O)c1ccc2nc(C3CCCCC3)oc2c1
IC50 (cells): 23.8 µM (active)

Cc1ccccc1-c1nc(N2CCNCC2)c2ccccc2n1
AC50 (Cytochrome P450 2D6): 20 µM (inconclusive)

CN(C)c1ncc2nc(-c3ccc(F)cc3)c(=O)n(C[C@H]3CCCO3)c2n1
AC50 (Cytochrome P450 2D6): 1.26 µM (inconclusive)

COc1cccc(N(C(=O)Cn2nnc(-c3cccs3)n2)C(C(=O)NC(C)C)c2ccc(C)o2)c1 (centres undefined)
EC50 [3]: 16.4 µM (active)
EC50 [4]: > 120 µM (not active)
EC50 [5]: 18.8 µM (active)

N#Cc1ccsc1NC(=O)CN1CCN(c2ccccc2O)CC1
AC50 [1]: 1.46 µM (active)

CC(C)(C)OC(=O)[C@H](Cc1ccccc1)NC(=O)c1[nH]cnc1C(=O)Nc1cccc(Cl)c1
EC50 (Streptococcus): 21.7 µM (active)
EC50 [6]: 3.64 µM (active)
EC50 (Streptokinase A): 38.3 µM (active)
AC50 [2]: 3.36 µM (active)

COc1cccc(Cn2c(=O)c(CCc3ccccc3)nc3cnc(N4CCN(C)CC4)nc32)c1
AC50 (Cytochrome P450 2D6): 20 µM (inconclusive)

Nc1nnc(SCC(=O)Nc2cccc3ccccc23)s1
EC50 [7]: > 260 µM (inactive)

CN=C(S)N(Cc1ccc(Cl)cc1)Cc1cccs1
EC50 [7]: > 260 µM (inactive)

CCOC(=O)c1ccc(Nc2nc(-c3cccnc3)nc3ccccc23)cc1
AC50 (Cytochrome P450 2D6): 10 µM (inconclusive)

Cc1c(C(=O)N2CCOCC2)c(S(=O)(=O)Nc2cccc(Br)c2)c(C)n1C
EC50 [3]: > 120 µM (not active)
EC50 [4]: 32.2 µM (active)
EC50 [5]: 15 µM (active)

Cc1cc(C)c(S(=O)(=O)Nc2cccc(/C=C/C(=O)O)c2)c(C)c1
EC50 [7]: > 260 µM (inactive)

Cc1ccc(Nc2c(-c3ccccc3O)nc3cnccn23)cc1
AC50 [1]: 0.705 µM (active)

COc1cccc(/C=C2\N=C(SC)SC2=O)c1OC
EC50 [7]: 241 µM (active)

COc1c(OC(C)=O)ccc(/C=C/c2ccc3cccc(OCc4ccccc4)c3n2)c1[N+](=O)[O-]
AC50 [2]: 1.67 µM (active)

CCOC(=O)C1CCN(c2ncnc3c2c(-c2ccccc2)cn3-c2ccccc2)CC1
EC50 [8]: 2.23 µM (active)
AC50 [2]: 3.11 µM (active)
EC50 [9]: > 60 µM (not active)

Cc1c(C)c(C)c(C(=O)c2ccc(NC(=O)c3ccccc3C(=O)O)cc2)c(C)c1C
AC50 [1]: 5.32 µM (active)

CC(=O)c1ccc(-c2ccc([C@H]3[C@@H]4C=CCC[C@@]4(C)C(=O)N3Cc3ccccc3)c(F)c2)cc1
AC50 [2]: 4.4 µM (active)

O=C(OCc1ccc([N+](=O)[O-])cc1)c1cc2ccccc2oc1=O
IC50 (cells): 23.2 µM (active)

CN(C)C(=O)c1ccc(-c2nccc(N(C)Cc3ccco3)n2)cc1
AC50 (Cytochrome P450 2C19): 25.1 µM (inconclusive)
AC50 (Cytochrome P450 2D6): 25.1 µM (inconclusive)

Cc1ccccc1CSc1nnc(-c2cccs2)n1Cc1ccco1
AC50 (Cytochrome P450 2D6): 1.12 µM (inconclusive)

CCOC(=O)c1c(NC(NC(=O)C(C)C)C(Cl)(Cl)Cl)sc2c1CCC2 (centres undefined)
AC50 [2]: 3.39 µM (active)

CC1CCCCN1c1ccc(N)cc1C(N)=O (centres undefined)
AC50 [1]: 11.1 µM (active)

C=CC[C@@H]1C=C[C@H](O/N=C(\C)CCN2CCCc3nc(C)c(C)cc32)[C@H](CO)O1
AC50 (Cytochrome P450 2D6): 3.16 µM (inconclusive)

COC(CNC(=O)C1CCCN(S(=O)(=O)c2c(C)noc2/C=C/c2cccs2)C1)OC (centres undefined)
EC50 [7]: 110 µM (active)

COc1ccc(C(=O)Nc2cccc(/C=C/c3nc(O)c4ccccc4n3)c2)cc1
AC50 [2]: 3.7 µM (active)

CCN(CC(=O)Nc1sc2c(c1C#N)CCCC2)Cc1nc(O)c2ccccc2n1
EC50 [3]: 22.4 µM (active)
EC50 [4]: > 120 µM (not active)
EC50 [5]: > 120 µM (not active)

Cc1cc(C)nc(NNC(=O)c2ccccc2O)n1
AC50 [1]: 5.66 µM (active)

Cc1csc(NC(=O)c2cc([N+](=O)[O-])cc([N+](=O)[O-])c2)n1
IC50 (cells): 13.2 µM (active)

c1ccc(C(c2ccccc2)N2CCN(c3ccc4ccccc4n3)CC2)cc1
EC50 [3]: 16.8 µM (active)
EC50 [4]: > 120 µM (not active)
EC50 [5]: > 120 µM (not active)

CC(=O)N1CCN=C1SCc1cccc(C(F)(F)F)c1
AC50 [1]: 7.34 µM (active)

NS(=O)(=O)c1ccc(NC(S)=Nc2ccn(Cc3cccc4ccccc34)n2)cc1
EC50 [3]: 15.6 µM (active)
EC50 [4]: > 120 µM (not active)
EC50 [5]: > 120 µM (not active)

COc1ccc(OCc2nnnn2-c2ccccc2)cc1
EC50 [7]: > 260 µM (inactive)

O=C(Cc1coc2cc3c(cc12)CCC3)OCC(=O)N1CCCC1=O
EC50 [3]: > 60 µM (not active)
EC50 [4]: > 60 µM (not active)
EC50 [5]: 30.1 µM (active)

Cc1ccc(Sc2ccc(S(=O)(=O)Nc3ccc(C(=O)O)cc3)cc2)cc1C
AC50 [1]: 20.7 µM (active)

CCOC(=O)Cn1cc(C#N)c2cccc(CC)c21
IC50 (cells): 4.78 µM (active)

COc1ccc(N(CC(=O)Nc2cc(C)ccc2C)S(=O)(=O)c2c(C)noc2C)cc1
AC50 [2]: 34.5 µM (active)

O=C(Nc1ccc(Nc2ccccc2)cc1)c1ccccc1
AC50 [2]: 13.7 µM (active)

O=C(c1cc2ccccc2o1)N1CCN=C1SCc1cccnc1
AC50 [1]: 0.095 µM (active)

O=C(CC1S/C(=N\CCc2ccccc2)N(/N=C/c2cccs2)C1=O)Nc1ccc(Cl)cc1 (centres undefined)
EC50 [7]: > 260 µM (inactive)

Cc1ccc(OCC(=O)N/N=C/c2cn(Cc3ccccc3)c3ccccc23)cc1
EC50 [3]: 9.88 µM (active)
EC50 [4]: 13.1 µM (active)
EC50 [5]: 5.86 µM (active)

CCc1nnc(N/N=C/c2ccc(N3CCC(C)CC3)c([N+](=O)[O-])c2)n1N
IC50 (cells): 20 µM (active)

CC1C/C(=N/NC(=O)c2cccc(F)c2)c2ccc(O)cc2C1 (centres undefined)
IC50 (cells): 34.6 µM (active)

COc1ccc(/C=N/Nc2ccccn2)c(OC)c1OC
AC50 [1]: 0.484 µM (active)

COc1ccc(CCN2/C(=N/C(=O)CCC(=O)O)SC3CS(=O)(=O)CC32)cc1 (centres undefined)
AC50 (Cytochrome P450 2D6): 39.8 µM (inconclusive)

CCOC(=O)NC(=O)/C(C#N)=N/Nc1c(F)cccc1F
EC50 [7]: > 260 µM (inactive)

C/C(=N\NC(=O)c1cccc(N2CCCC2=O)c1)c1ccc(N)cc1
AC50 [1]: 1.61 µM (active)
